Experimental findings from PubChem BioAssay (NCI) are described below.

Among the test systems are EKVX NSCLC; SNB-75 CNS; COLO 205 colon; RXF 393 renal; NCI/ADR-RES ovarian; HOP-92 NSCLC; MDA-MB-435; NCI-H522 lung; LOX IMVI melanoma; SK-MEL-2 melanoma.
Common to all, as to experiment: growth of human tumour cells (NCI), 48 h

Values joined by “and” are separate entries in the source; they are usually repeats but may differ in a detail not shown here. Equal values may be shown once.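 The compound was tested at five concentrations on cells cultured in 96-well plates, with a 48-hour exposure period. GI50 marks 50% less growth. TGI marks complete inhibition of growth.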

With `O=c1c2cc(F)ccc2sc2c(N3CCNCC3)nc3ccc(F)cc3c12`, the GI50 in the experiment with EKVX NSCLC was 1620 nM; with SNB-75 CNS, 1420 nM; in the experiment with COLO 205 colon it was 2150 nM; in the experiment on RXF 393 renal, 1330 nM; with NCI/ADR-RES ovarian it was 1750 nM; with HOP-92 NSCLC, 1180 nM. Further, the GI50 in the experiment on MDA-MB-435 is 1740 nM; in the experiment on NCI-H522 lung it was 1700 nM; with LOX IMVI melanoma, 1620 nM; in the experiment with SK-MEL-2 melanoma it was 1840 nM. Also, the TGI with EKVX NSCLC amounted to 3040 nM; in the experiment on SNB-75 CNS, 2820 nM; in the experiment with COLO 205 colon, 4720 nM; in the experiment with RXF 393 renal, 2710 nM; in the experiment with NCI/ADR-RES ovarian, 3440 nM; in the experiment on HOP-92 NSCLC, 2520 nM. Moreover, the TGI was 3200 nM in the experiment with MDA-MB-435, 3390 nM with NCI-H522 lung, 3160 nM in the experiment on LOX IMVI melanoma and 3530 nM in the experiment with SK-MEL-2 melanoma.

As to `C=CCNc1nc2c(s1)C(=O)c1ccccc1C2=O`, the TGI amounted to 29000 nM with EKVX NSCLC; 38800 nM in the experiment with SNB-75 CNS; 41200 nM in the experiment on COLO 205 colon; 35400 nM in the experiment on RXF 393 renal; 82800 nM in the experiment on NCI/ADR-RES ovarian; 21800 nM in the experiment with HOP-92 NSCLC. In addition, the TGI is 3310 nM in the experiment on MDA-MB-435, 21400 nM with NCI-H522 lung, 19600 nM in the experiment on LOX IMVI melanoma and 25900 nM in the experiment on SK-MEL-2 melanoma.

`CC1CCC2(NC1)OC1CC3C4CC=C5CC(O)CCC5(C)C4CCC3(C)C1C2C` (stereo not given): the TGI with EKVX NSCLC was over 100000 nM; with SNB-75 CNS it was 15300 nM; in the experiment with COLO 205 colon, over 100000 nM; in the experiment on RXF 393 renal, 60200 nM and 39900 nM; with NCI/ADR-RES ovarian, 51300 nM and > 57100 nM; in the experiment on HOP-92 NSCLC, 49500 nM and 46200 nM. In addition, the TGI is over 100000 nM in the experiment with MDA-MB-435; > 100000 nM and 62900 nM in the experiment on NCI-H522 lung; 57300 nM and > 63800 nM with LOX IMVI melanoma; > 100000 nM and 45400 nM with SK-MEL-2 melanoma. Besides, the GI50 was 48700 nM and 16600 nM with MDA-MB-435; 19900 nM and 4930 nM with LOX IMVI melanoma.

For `Cc1ncc(C(=O)Nc2ccc(CN3CCN(C)CC3)c(C(F)(F)F)c2)cc1C#Cc1cnc2cccnn12`, the GI50 is 683 nM in the experiment with EKVX NSCLC; 1040 nM with SNB-75 CNS; 200 nM in the experiment with COLO 205 colon; 438 nM in the experiment with RXF 393 renal; 997 nM in the experiment on NCI/ADR-RES ovarian; 253 nM in the experiment on HOP-92 NSCLC. Also, the GI50 is 243 nM with MDA-MB-435, 580 nM in the experiment on NCI-H522 lung, 183 nM with LOX IMVI melanoma and 335 nM with SK-MEL-2 melanoma. The TGI in the experiment with EKVX NSCLC was 2900 nM; in the experiment with SNB-75 CNS, 1990 nM; with COLO 205 colon, 1310 nM; with RXF 393 renal, 1140 nM; in the experiment on NCI/ADR-RES ovarian it was 4090 nM; in the experiment on HOP-92 NSCLC, 2870 nM. Besides, the TGI stood at 1480 nM with MDA-MB-435, 2400 nM with NCI-H522 lung, 672 nM in the experiment on LOX IMVI melanoma and 1540 nM in the experiment with SK-MEL-2 melanoma.

For `Cn1c(-c2c(N)n(Nc3cccc(Cl)c3)c3nc(C#N)c(C#N)nc23)nc2ccccc21`, the GI50 in the experiment with EKVX NSCLC was 839 nM; in the experiment with SNB-75 CNS it was 8330 nM; in the experiment on COLO 205 colon it was 6350 nM; with RXF 393 renal, 13.8 nM; in the experiment on NCI/ADR-RES ovarian it was 837 nM; in the experiment with HOP-92 NSCLC, 16500 nM. The GI50 in the experiment with MDA-MB-435 is 3280 nM; in the experiment with NCI-H522 lung, 1060 nM; in the experiment on LOX IMVI melanoma it was 5250 nM; in the experiment on SK-MEL-2 melanoma, 5850 nM. The TGI in the experiment with EKVX NSCLC is 7450 nM; in the experiment on SNB-75 CNS it was 35100 nM; with COLO 205 colon it was 18200 nM; in the experiment with RXF 393 renal it was 3540 nM; with NCI/ADR-RES ovarian, 14100 nM; in the experiment with HOP-92 NSCLC, over 50000 nM. The TGI in the experiment with MDA-MB-435 turned out to be 14000 nM; with NCI-H522 lung it was 8190 nM; with LOX IMVI melanoma, 11500 nM; in the experiment on SK-MEL-2 melanoma it was 18900 nM.

Turning to `O=C(NOC[C@H](O)CO)c1ccc(F)c(F)c1Nc1ccc(I)cc1F`, the GI50 in the experiment on EKVX NSCLC was 101 nM and 89.1 nM; in the experiment with SNB-75 CNS, 17800 nM and > 10000 nM; with COLO 205 colon, < 10 nM and 1.43 nM; in the experiment on RXF 393 renal, 363 nM and 342 nM; in the experiment with NCI/ADR-RES ovarian it was 12300 nM and 6300 nM; in the experiment with HOP-92 NSCLC it was 37.7 nM and 20.1 nM. In addition, the GI50 is < 10 nM and 4.16 nM in the experiment with MDA-MB-435; < 12.7 nM and 39.7 nM in the experiment on LOX IMVI melanoma; < 10 nM and 3.37 nM with SK-MEL-2 melanoma. For the same compound, the TGI in the experiment with EKVX NSCLC is over 100000 nM; with SNB-75 CNS, over 100000 nM; in the experiment with COLO 205 colon, over 100000 nM; with RXF 393 renal, 43400 nM and > 10000 nM; with NCI/ADR-RES ovarian, over 100000 nM; in the experiment on HOP-92 NSCLC, 613 nM and 430 nM. Also, the TGI with MDA-MB-435 was over 100000 nM; with NCI-H522 lung, over 100000 nM; in the experiment on LOX IMVI melanoma, 19900 nM and > 6500 nM.

In the case of `COc1cc(F)c(F)c(Nc2ccc(I)cc2F)c1NS(=O)(=O)C1(C[C@H](O)CO)CC1`, the GI50 is 323 nM in the experiment with EKVX NSCLC; 2620 nM with SNB-75 CNS; 23.4 nM in the experiment on COLO 205 colon; 1050 nM in the experiment with RXF 393 renal; over 5580 nM in the experiment with NCI/ADR-RES ovarian; 189 nM in the experiment with HOP-92 NSCLC. Besides, the GI50 is 65.9 nM with MDA-MB-435, 3720 nM in the experiment with NCI-H522 lung, 556 nM in the experiment on LOX IMVI melanoma and 41.6 nM in the experiment with SK-MEL-2 melanoma. The TGI is over 10000 nM in the experiment with EKVX NSCLC; over 10000 nM with SNB-75 CNS; over 2510 nM with COLO 205 colon; over 9500 nM in the experiment with RXF 393 renal; over 10000 nM in the experiment with NCI/ADR-RES ovarian; 1680 nM in the experiment on HOP-92 NSCLC. In addition, the TGI in the experiment on MDA-MB-435 is over 10000 nM; in the experiment with NCI-H522 lung, over 10000 nM; with LOX IMVI melanoma, over 10000 nM; in the experiment on SK-MEL-2 melanoma it was over 2010 nM.

As for `COc1cccc(/C(C#N)=C/c2nc3c(N4CCOCC4)nc(Cl)nc3n2C)c1`, the GI50 is 1440 nM in the experiment on EKVX NSCLC; 305 nM in the experiment with SNB-75 CNS; 1330 nM with COLO 205 colon; 1020 nM in the experiment on RXF 393 renal; 2310 nM with NCI/ADR-RES ovarian; 453 nM in the experiment with HOP-92 NSCLC. Besides, the GI50 in the experiment with MDA-MB-435 was 1250 nM; in the experiment with NCI-H522 lung, 567 nM; in the experiment with LOX IMVI melanoma it was 1010 nM; in the experiment with SK-MEL-2 melanoma it was 1400 nM. In addition, the TGI in the experiment with EKVX NSCLC turned out to be 2840 nM; with SNB-75 CNS, 1790 nM; in the experiment with COLO 205 colon, 3090 nM; in the experiment with RXF 393 renal it was 2230 nM; in the experiment with NCI/ADR-RES ovarian, 9310 nM; in the experiment on HOP-92 NSCLC, 2210 nM. In addition, the TGI came to 2610 nM with MDA-MB-435, 2200 nM with NCI-H522 lung, 2250 nM with LOX IMVI melanoma and 2810 nM in the experiment with SK-MEL-2 melanoma.
